Paper PMC6274786 (International Journal of Molecular Sciences, 2018)
Entries after “also recorded” stand apart in the source; their conditions may differ. Like-named read-outs stand apart in the source and are kept apart here.

How the values were obtained:
[1] = system: Hepatoma HepG2 cell line; test: Antiproliferative assay (MTS), HepG2; type: cell-based; settings: 72 h incubation
Experimental: (§1) Human embryonic kidney (HEK)-293 cell line (ATCC CRL-1573) was kindly donated by Prof. Dr. […] (Pharmaceutical Institute, Pharmaceutical Chemistry I, University of Bonn). Hepatoma HepG2 (ATCC HB-8065) cell line was kindly donated by the Department of Pharmacological Screening, Jagiellonian University Medical College. The cell cultures' growth conditions in presence of H3R antagonist 4 were applied as described before. The cells' viability was assessed after 72 h of incubation with H3R antagonist and the following references: doxorubicin (Sigma-Aldrich) and carbonyl cyanide 3-chlorophenylhydrazone (CCCP) (Sigma-Aldrich). CellTiter 96® AQueous non-radioactive cell proliferation assay (MTS) was purchased from Promega® and added to each well in the volume of 20 μL. The cells were then incubated for 2-5 h. The microplate reader EnSpire (PerkinElmer Ltd., Waltham, MA, USA) was used to measure the absorbance at 490 nm.

[2] = system: HEK-293 cell line; test: Antiproliferative assay (MTS), HEK-293; type: cell-based, human; settings: 72 h incubation
Experimental: as §1

[3] = target: CYP2D6 (Homo sapiens, UniProt P10635); test: Luminescent CYP2D6 P450-Glo assay
Experimental: The metabolic interactions of H3R antagonist 4 were determined by the luminescent P450-Glo™ 3A4 and 2D6 assays purchased from Promega®. All enzymatic reactions were performed according to the manufacturer protocols and as previously described. […] The luminescence was measured with a microplate reader EnSpire (PerkinElmer). The final concentration of H3R antagonist 4 was in the range of 0.1–25 µM, whereas reference inhibitory effects ranged from 0.01 µM to 10 µM. The IC50 values’ calculations were performed by GraphPad Prism™ software (version 5.01, San Diego, CA, USA).

[4] = system: PTZ-induced seizure; test: Pentylenetetrazole (PTZ)-induced seizure; type: in vivo, Wistar rats; settings: for protective effect in PTZ-induced seizure (in words): observed over 30 min, vs saline-treated group; for PTZ-Induced Seizure (protection class): PTZ 60 mg/kg
Experimental: (§2) In this study and according to previously used protocols, two chemical agents have been used to induce seizures, namely pentylenetetrazole (PTZ, 60 mg/kg, i.p.) and strychnine (STR, 3.5 mg/kg, i.p.). PTZ 60 mg/kg or STR 3.5 mg/kg were administered i.p. to all groups of seven rats (n = 7), that is, animals pretreated with vehicle or test compounds 1–16. Vehicle, VPA (300 mg/kg, i.p.), [26, 47, 48, 49] or test compounds 1–16 (10 mg/kg, i.p.) were systemically administered 30–45 min before PTZ (60 mg/kg, i.p.) or STR (3.5 mg/kg, i.p.) injection, and animals were directly observed for any signs of convulsion for a duration of 30 min. The observed scores as well as percent protection against generalized tonic-clonic seizure (GTCS) were graded and scaled according to the Racine scale (stage 0, no change in behavior; stage 1, stereotype mouthing, eye blinking, and/or mild facial clonus; stage 2, head nodding and/or severe facial clonus; stage 3, myoclonic jerk in forelimbs; stage 4, clonic convulsions in the forelimbs with rearing; stage 5, generalized colonic convulsions associated with loss of balance) to evaluate the protection provided by the respective test compound against seizures. The animals were divided into eighteen groups of seven rats (n = 7) and treated as follows.
(§3) (1) Control group injected with vehicle + PTZ (SAL group), (2) positive control group in which rats were injected with VPA (300 mg/kg) + PTZ (VPA group), and animals in the test groups (3)–(18) were systemically administered with test compounds 1–16 (10 mg/kg), respectively. An additional PTZ experiment was conducted using three different groups of seven rats (n = 7), the H3R ligand with the most promising protection in PTZ model was administered at doses of 2.5, 5, or 15 mg/kg, i.p. 30–45 min before the PTZ challenge. […] The same experimental procedure was followed in the STR-induced seizure model applying the reference drug VPA, which was used at a dose of 300 mg/kg, i.p. (Figure 3, Table 2).

[5] = system: MES-induced seizure; test: Maximal electroshock (MES)-induced seizure; type: in vivo, Wistar rats; settings: for protective effect in MES-induced seizure (in words): vs saline-treated group; for MES-Induced Seizure (protection class): 50 Hz, 120 mA, 1 s
From the text: As previously described, the seizures were induced in rats with a 50 Hz alternating current of 120 mA intensity. The current was applied through ear electrodes for 1 s. Protection against the spread of MES-induced seizure was defined as the abolition of the tonic hind limb extension (THLE) component of the seizure. For the first screening of protective effects of test compounds 1–16 in the MES-induced seizure model, the animals were divided into eighteen groups of seven rats (n = 7) as follows; group (1) control group injected with vehicle (SAL), group (2) positive control group in which rats were injected with PHT at a dose of 10 mg/kg (this being the minimal dose of PHT that protected animals against the spread of MES-induced seizures without mortality), and groups (3)–(18) animals in the experimental groups were administered H3R antagonists 1–16 at a dose of 10 mg/kg. In another MES experiment in three separate groups of six rats (n = 6), H3R antagonist 4 with the most promising protection in MES model was administered at doses of 2.5, 5, or 15 mg/kg, i.p. 30–45 min before the MES challenge.

[6] = target: T1, hH4R (Homo sapiens, UniProt Q9H3N8); test: H4R radioligand displacement assay, Sf9 cell membrane preparations; type: binding
T1 construct: expressed in transfected cells; host or cells: Sf9 insect cells (membrane preparations)
Experimental: H4R radioligand displacement assays were performed with Sf9 cell membrane preparations, expressing the hH4R, as described previously. Assays ran in triplicates with four appropriate concentrations of the test compound. Data were analyzed by GraphPad Prism 7, using the “one-site competition” equation.

[7] = target: T2, human H1 receptor (Homo sapiens, UniProt P35367); test: Radioligand binding, membranes from CHO-K1 cells; settings: for fold lower affinity at hH1- and H4Rs than at H3R: selectivity toward H3Rs
T2 construct: purchased PerkinElmer; host or cells: CHO-K1 cells, stably transfected (membranes)
Experimental: Radioligand binding was performed as previously described using membranes from CHO-K1 cells stably transfected with the human H1 receptor (PerkinElmer., Waltham, MA, USA). Data were fitted to a one-site curve-fitting equation with Prism 6 (GraphPad Software, city, state, country) and Ki values were estimated from the Cheng–Prusoff equation [44].

[8] = Metabolic stability in rat liver microsomes; type: in vitro ADME; settings: RLMs, MS ion fragment analysis, metabolite M-I
Experimental: Rat liver microsomes (RLMs) purchased form Sigma-Aldrich (St. Louis, MO, USA) were used for in vitro determination of compound 4’s metabolic stability. The NADPH regeneration system was purchased from Promega (Madison, WI, USA). All experiments were performed as described before. The reaction mixture was preincubated at 37 °C for 5 min, and then the reaction was started by adding 50 µL of NADPH regeneration system. The reaction was ended after 120 min by the addition of cold methanol (200 µL). The mixture was then centrifuged at 14,000 rpm for 15 min and the ultra-performance liquid chromatography–mass spectrometry (UPLC/MS) analysis of the supernatant was conducted. Ion fragment analyses were also performed for metabolic pathways’ determination.

[9] = system: STR-induced seizure; test: Strychnine (STR)-induced seizure; type: in vivo, Wistar rats; settings: for protective effect in STR-induced seizure (in words): 30 min observation, vs saline-treated group; for STR-Induced Seizure (protection class): STR 3.5 mg/kg
Experimental: as §2, §3

[10] = target: T3, human histamine H3R (Homo sapiens, UniProt Q9Y5N1); test: [3H]Nα-methylhistamine radioligand displacement assay, HEK-293 cell membranes; type: binding
T3 construct: expressed in transfected cells
Experimental: As described previously, the affinity for the human histamine H3R was tested utilizing radioligand displacement assays with [^3H]N^α-methylhistamine at membrane preparations from human embryonic kidney (HEK)-293 cells, stably expressing the receptor. […] The analysis of data was conducted by the software GraphPad Prism 7 (San Diego, CA, USA), using the “one-site competition” equation. Ki values were calculated from the 50 percent of inhibitory concentration (IC50) values according to the Cheng-Prusoff equation [44]

[11] = 10 mg/kg i.p. co-administered with RAMH 10 mg/kg i.p.

T2 sequence (P35367 whole entry): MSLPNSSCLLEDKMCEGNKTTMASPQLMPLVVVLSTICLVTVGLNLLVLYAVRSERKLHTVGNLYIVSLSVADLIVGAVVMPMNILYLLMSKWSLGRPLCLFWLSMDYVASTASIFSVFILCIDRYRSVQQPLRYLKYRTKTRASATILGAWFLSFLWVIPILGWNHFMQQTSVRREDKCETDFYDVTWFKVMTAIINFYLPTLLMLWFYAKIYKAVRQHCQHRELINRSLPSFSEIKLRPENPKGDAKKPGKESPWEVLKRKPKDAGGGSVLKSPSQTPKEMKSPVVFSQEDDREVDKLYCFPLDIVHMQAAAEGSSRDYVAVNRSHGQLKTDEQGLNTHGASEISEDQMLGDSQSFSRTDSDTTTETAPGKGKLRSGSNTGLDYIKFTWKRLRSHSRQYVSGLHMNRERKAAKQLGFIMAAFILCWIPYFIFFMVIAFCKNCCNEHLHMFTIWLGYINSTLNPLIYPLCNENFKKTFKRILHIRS
Chain of CYP2D6 (P10635 whole entry): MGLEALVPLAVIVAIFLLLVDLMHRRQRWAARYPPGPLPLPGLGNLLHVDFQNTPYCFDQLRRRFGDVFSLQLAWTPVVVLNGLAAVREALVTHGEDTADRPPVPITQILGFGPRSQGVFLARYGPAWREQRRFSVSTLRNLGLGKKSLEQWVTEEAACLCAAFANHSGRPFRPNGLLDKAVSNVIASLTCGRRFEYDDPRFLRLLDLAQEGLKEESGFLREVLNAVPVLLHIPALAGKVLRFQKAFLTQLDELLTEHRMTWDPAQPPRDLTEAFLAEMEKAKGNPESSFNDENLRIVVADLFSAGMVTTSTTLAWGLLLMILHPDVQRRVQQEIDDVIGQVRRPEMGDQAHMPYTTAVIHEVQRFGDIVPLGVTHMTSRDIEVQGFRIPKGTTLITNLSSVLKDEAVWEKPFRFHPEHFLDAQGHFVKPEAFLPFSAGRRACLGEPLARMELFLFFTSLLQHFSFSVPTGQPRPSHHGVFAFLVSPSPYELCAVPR
T1 sequence (Q9H3N8 whole entry): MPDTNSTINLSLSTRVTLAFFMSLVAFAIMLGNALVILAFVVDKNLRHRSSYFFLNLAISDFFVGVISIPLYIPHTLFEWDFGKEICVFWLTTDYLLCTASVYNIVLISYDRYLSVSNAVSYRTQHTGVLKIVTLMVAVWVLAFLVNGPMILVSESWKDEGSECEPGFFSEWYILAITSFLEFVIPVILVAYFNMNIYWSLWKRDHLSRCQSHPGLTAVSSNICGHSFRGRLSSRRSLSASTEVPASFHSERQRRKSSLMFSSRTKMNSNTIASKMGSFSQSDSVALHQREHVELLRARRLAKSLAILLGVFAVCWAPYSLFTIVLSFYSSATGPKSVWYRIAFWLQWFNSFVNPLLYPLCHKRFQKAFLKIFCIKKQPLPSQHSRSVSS
T3 sequence (Q9Y5N1 whole entry): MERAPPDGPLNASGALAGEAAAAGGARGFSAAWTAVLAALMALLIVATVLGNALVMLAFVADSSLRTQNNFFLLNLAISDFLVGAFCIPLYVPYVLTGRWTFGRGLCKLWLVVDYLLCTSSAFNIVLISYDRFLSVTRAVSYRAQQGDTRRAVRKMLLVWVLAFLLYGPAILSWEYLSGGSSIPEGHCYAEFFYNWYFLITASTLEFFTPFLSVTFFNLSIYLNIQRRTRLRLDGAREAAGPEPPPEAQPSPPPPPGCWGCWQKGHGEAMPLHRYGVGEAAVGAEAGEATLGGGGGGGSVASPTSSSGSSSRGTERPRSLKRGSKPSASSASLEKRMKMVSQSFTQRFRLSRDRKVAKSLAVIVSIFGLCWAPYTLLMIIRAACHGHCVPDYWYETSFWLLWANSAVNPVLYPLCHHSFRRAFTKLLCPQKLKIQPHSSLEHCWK

Row | Compound | concentration with significant decrease of HepG2 proliferation/viability [1] [µM] | PTZ-Induced Seizure % Protection against GTCS ([4]; 10 mg/kg i.p.) [%] | PTZ-Induced Seizure Average Seizure Score ([4]; 10 mg/kg i.p.) | protective effect in PTZ-induced seizure (in words) ([4]; 10 mg/kg i.p.) | PTZ-Induced Seizure (protection class) ([4]; 10 mg/kg i.p.) | protective effect in MES-induced seizure (in words) ([5]; 10 mg/kg i.p.) | MES-Induced Seizure (protection class) ([5]; 10 mg/kg i.p.) | Ki [6] [nM] | Ki [7] [nM] | fold lower affinity at hH1- and H4Rs than at H3R [7] | STR-Induced Seizure % Protection against GTCS ([9]; 10 mg/kg i.p.) [%] | STR-Induced Seizure Average Seizure Score ([9]; 10 mg/kg i.p.) | protective effect in STR-induced seizure (in words) ([9]; 10 mg/kg i.p.) | STR-Induced Seizure (protection class) ([9]; 10 mg/kg i.p.) | further results
1 | N#CC(C#N)=NNc1cccc(Cl)c1 [CCCP, carbonyl cyanide 3-chlorophenylhydrazone, reference compound] | 10 |  |  |  |  |  |  |  |  |  |  |  |  |  | 
2 | COc1cccc2c1C(=O)c1c(O)c3c(c(O)c1C2=O)C[C@@](O)(C(=O)CO)C[C@@H]3O[C@H]1C[C@H](N)[C@H](O)[C@H](C)O1 [DX, doxorubicin] |  |  |  |  |  |  |  |  |  |  |  |  |  |  | concentration with significant decrease of HEK-293 proliferation/viability [2]: 1 µM
3 | O=C(O)C(=O)O.c1ccc2cc(OCCCCCCN3CCCCCC3)ccc2c1 [Ligand 4, 1-(6-(naphthalen-2-yloxy)hexyl)azepane hydrogen oxalate] | 100 | 100 | 0.00 ± 0.00 ^& | full protective activities | ++ (high protective effect (THLE duration <1, seizure score 0)) | most promising protective effect | ++ (high protective effect (THLE duration <1, seizure score 0)) | > 10000 | 1270 | at least 10 fold | 28.57 | 4.57 ± 0.19 | failed to provide any appreciable protection; also recorded: failed to exhibit appreciable protection | − | IC50 [3]: 670 nM; fold higher CYP2D6 IC50 compared with reference drug QD [3]: 67 fold; PTZ-Induced Seizure % Protection against GTCS ([4]; 2.5 mg/kg i.p.): 100%; PTZ-Induced Seizure Average Seizure Score ([4]; 2.5 mg/kg i.p.): 2.29 ± 0.44; PTZ-Induced Seizure % Protection against GTCS ([4]; 5 mg/kg i.p.): 100%; PTZ-Induced Seizure Average Seizure Score ([4]; 5 mg/kg i.p.): 0.71 ± 0.31 **^,#; PTZ-Induced Seizure % Protection against GTCS [4, 11]: 100%; PTZ-Induced Seizure Average Seizure Score [4, 11]: 0.29 ± 0.16; PTZ-Induced Seizure % Protection against GTCS ([4]; 15 mg/kg i.p.): 100%; PTZ-Induced Seizure Average Seizure Score ([4]; 15 mg/kg i.p.): 0.00 ± 0.00 ^&; MES-Induced Seizure Average THLE ([5]; 2.5 mg/kg i.p.): 5.83 ± 1.01 s; MES-Induced Seizure Average THLE (s) ([5]; 5 mg/kg i.p.): 2.50 ± 1.21 **^,# s; MES-Induced Seizure Average THLE (s) ([5]; 10 mg/kg i.p.): 0.57 ± 0.21 **^,$ s; MES-Induced Seizure Average THLE [5, 11]: 6.17 ± 0.59 s; MES-Induced Seizure Average THLE (s) ([5]; 15 mg/kg i.p.): 3.67 ± 0.94 **^,# s; main metabolic pathway [8]: double-hydroxylation at the 6-n-hexylazepane moiety
4 | CC1CCCN(CCCCCCOc2ccc(C(=O)c3ccccc3)cc2)C1.O=C(O)C(=O)O (stereo not shown) [Ligand 6, (4-(6-(3-methylpiperidin-1-yl)hexyloxy)phenyl)(phenyl)methanone hydrogen oxalate] |  |  |  |  | − |  | + (moderate protective effect (tonic hind limb extension (THLE) duration in the range of 2–5 s, seizure score in the range of 2–4)) |  | 915 to 1340 |  |  |  |  | − | Ki [10]: 52.8 nM; IC50 ([3]; human): 670 nM
5 | Fc1ccc(OCCCCCCN2CCCCCC2)cc1.O=C(O)C(=O)O [Ligand 13, 1-(6-(4-fluorophenoxy)hexyl)azepane hydrogen oxalate] |  | 85.71 | 2.14 ± 0.47 | weak protection | + (moderate protective effect (tonic hind limb extension (THLE) duration in the range of 2–5 s, seizure score in the range of 2–4)) | without protection | − | > 10000 | 1340 | at least 10 fold | 100 | 2.00 ± 0.35 | moderate protective effect | + (moderate protective effect (tonic hind limb extension (THLE) duration in the range of 2–5 s, seizure score in the range of 2–4)) | Ki ([10]; mean with 95% confidence interval, read-out: In Vitro Affinity Ki (hH3R) in nM [CI]): 137 nM; MES-Induced Seizure Average THLE ([5]; 10 mg/kg i.p.): 6.43 ± 1.14 s; STR-Induced Seizure % Protection against GTCS ([9]; 2.5 mg/kg i.p.): 14.29%; STR-Induced Seizure Average Seizure Score ([9]; 2.5 mg/kg i.p.): 4.86 ± 0.13; STR-Induced Seizure % Protection against GTCS ([9]; 5 mg/kg i.p.): 85.71%; STR-Induced Seizure Average Seizure Score ([9]; 5 mg/kg i.p.): 3.00 ± 0.31; STR-Induced Seizure % Protection against GTCS [9, 11]: 100%; STR-Induced Seizure Average Seizure Score [9, 11]: 2.14 ± 0.35; STR-Induced Seizure % Protection against GTCS ([9]; 15 mg/kg i.p.): 100%; STR-Induced Seizure Average Seizure Score ([9]; 15 mg/kg i.p.): 2.17 ± 0.31
